Earlier results in patent publication US8288412B2, “Compounds which have activity at M1 receptor and their uses in medicine” (Glaxo Group Limited, priority 2005, dated 2012).

What was measured:
[1] = mice
[2] = unilateral 6-OH-DA lesioned rats
[3] = monkeys
[4] = rats

## CCCCCCOc1nsnc1C1=CCCN(C)C1 [xanomeline]
[1]
  apomorphine induced climbing: reverses
[2]
  dopamine agonist driven turning: reverses
Alzheimer's patients
  psychotic symptoms such as suspiciousness, hallucinations and delusions: reduce psychotic symptoms
patients
  side effects: dose-limiting peripheral cholinergic side effects
[3]
  amphetamine-induced motor unrest: reverses
[4]
  amphetamine induced locomotion: reverses
